In US11964984B2, “TXNIP-TRX complex inhibitors and methods of using the same” (CITY OF HOPE, priority 2020, dated 2024):

Key:
[1] = tested on: TXNIP mRNA; assay: TXNIP mRNA levels in murine MIN6 pancreatic beta cells (RT-PCR); type: cell-based, mouse; conditions: 25 mM glucose, 72 hours
Description: (§1) FIGS. 4A-4B. […] MIN6 cells were cultured under 25 mM glucose with C30 and C38 at the indicated concentrations for 72 hours. Total RNA was prepared. RT-PCR was performed and data shown are the mean±SEM from triplicates. Statistical analysis was performed for each column vs. HG DMSO using one-way ANOVA: *p<0.0001. […] MIN6 cells were cultured under 25 mM glucose and treated with C30 and C38 at the indicated concentrations for 72 hours. Total RNA was prepared. RT-PCR was performed and data shown are the mean±SEM from triplicates. Statistical analysis was performed for each column vs. HG DMSO using one-way ANOVA: *p<0.0001.
(§2) To ascertain the relevance to pancreatic beta cells, we tested the effects of the lead compounds on key target gene mRNA levels in murine MIN6 pancreatic beta cells.
(§3) RNA extraction and quantitative RT-PCR. RNA was extracted using the Direct-zol™ RNA MiniPrep Plus (Zymo Research). Reverse transcription of RNA samples into cDNA was performed using the GeneAmp RNA PCR Kit (Applied Biosystems), dNTP (from Roche Applied Science), Rnase inhibitor, MULV Reverse Transcriptase and Random hexamers reagent (all from Invitrogen). Diluted cDNA was quantified using real-time PCR performed with Power SYBR Green qPCR MasterMix (Applied Biosystem) and 7500 real-time PCR system (Applied Biosystems). The HPRT1 gene was used as an internal control.

[2] = tested on: TXNIP mRNA; assay: TXNIP mRNA expression in THP1 cells under 25 mM glucose (RT-PCR); type: cell-based, human; conditions: for TXNIP mRNA expression: concentration range
Description: FIGS. 2A-2B. FIG. 2A: C30 and C38 inhibited TXNIP mRNA expression in THP1 cells. THP1 cells were cultured under 25 mM glucose with the indicated concentrations of compounds for 72 hours. Cells were then collected for total RNA preparation. RT-PCR was performed, and data shown are the mean±SEM from triplicates. Statistical analysis was performed using one-way ANOVA, *p<0.0001. FIG. 2B: C30 and C38 inhibited TNF-α mRNA expression in THP1 cells. THP1 cells were cultured under 25 mM glucose with various concentrations of compounds as indicated for 72 hours and collected for total RNA preparation. RT-PCR was performed, and data shown are the mean±SEM from triplicates. Statistical analysis was performed using one-way ANOVA: *<0.02; **<0.0001.
FIG. 6. C38 analogues effects on TXNIP mRNA expression in THP1 cells. THP1 cells were cultured under 25 mM glucose with 2.5 uM of compounds for 72 h. Total RNA was collected. RT-PCR was performed in triplicate and data shown are the mean±SEM. Statistical analysis was performed using one-way ANOVA: *p<0.0001.
FIG. 7. C38 and analogue E2 effects on TXNIP mRNA levels in THP cells. THP1 cells were cultured under 25 mM glucose with several concentration of C38 and E2 as indicated for 72 hours. Total RNA was prepared. RT-PCR was performed in triplicate and data shown are the mean±SEM. Statistical analysis was performed for each column vs. without compound control using one-way ANOVA: *p<0.0001.
C30 and C38 inhibited TXNIP mRNA expression in THP1 cells.
Discovery of lead compound analogues. A search of chemical libraries was performed in the interest of identifying possible lead compound analogues. Analogues to C38 were identified. To determine the properties of the analogues, we treated THP1 cells with the E batch compounds for three days, prepared RNA and measured TXNIP mRNA levels.
as §3

[3] = tested on: TXNIP mRNA; assay: TXNIP mRNA expression in murine RAW macrophages (RT-PCR); type: cell-based, mouse; conditions: RAW264.7 cells, 25 mM glucose, 72 hours
Description: FIGS. 3A-3B. FIG. 3A: C30 and C38 inhibited TXNIP mRNA expression in murine RAW macrophages. RAW cells were cultured under 25 mM glucose with various concentration of C30 and C38 as indicated for 72 hours. Total RNA was prepared. RT-PCR was performed and data shown are the mean±SEM from triplicates. Statistical analysis was performed for each column vs. high glucose (HG) DMSO using one-way ANOVA: *p<0.0001. FIG. 3B: Treatment with C30 and C38 decreased TNF-α mRNA expression in murine RAW macrophages. RAW cells were cultured under 25 mM glucose with various concentration of C30 and C38 as indicated for 72 hours. Total RNA was prepared. RT-PCR was performed and data shown are the mean±SEM from triplicates. Statistical analysis was performed for each column vs. HG DMSO using one-way ANOVA: *p<0.0001.
Treatment of murine RAW macrophages with lead compounds C30 and C38 decreased TXNIP and TNF-α. We have also tested the effects of the lead compound in murine RAW264.7 (RAW) macrophages. As in human THP1 cells, C30 and C38 inhibited TXNIP and TNF-α mRNA expression in mouse RAW cells (FIGS. 3A-3B) showing they are also effective in mouse cells. […]
RNA extraction and quantitative RT-PCR. […] Diluted cDNA was quantified using real-time PCR performed with Power SYBR Green qPCR MasterMix (Applied Biosystem) and 7500 real-time PCR system (Applied Biosystems). […]

[4] = tested on: TXNIP mRNA; assay: TXNIP expression in murine blood after oral dosing (RT-PCR); type: in vivo, C57BL/6 mice; conditions: 90 mg/kg oral gavage daily for five days, 96 hours after last dose
Description: FIG. 16. Compounds C30 and C38 reduce TXNIP expression in murine blood. Twelve male C57BL/6 mice were divided into three groups (vehicle, C30 and C38). They received 90 mg/kg of the indicated compounds via oral gavage daily for five days. Animals were humanely euthanized 96 hours after administration of the last drug dose. Blood samples were collected for total RNA extraction. RT-PCR was performed in triplicate and data shown are the mean±SEM. Statistical analysis was performed using one-way ANOVA: *p<0.001.
The effects of compounds C30 and C38 at single high dose of 90 mg/kg. Twelve male mice were divided into three groups: 1) Control group (4 mice), 2) compound C30 (4 mice) and 3) compound C38 (4 mice). By oral gavage, animals were given 90 mg/kg of agent daily for 5 consecutive days (vehicle: 30% Solutol in saline). Mice were weighed every day during the treatment period. They were humanely euthanized 96 hours after the last dose. Tissues including the pancreas, liver and kidneys were collected (snap frozen in liquid nitrogen) for RNA extraction. […] Those given compound C30 lost ˜5% of body weight (FIG. 15).
Expression of TXNIP in vivo in treated mice.

[5] = tested on: TNF-α mRNA; assay: TNF-α mRNA expression in murine MIN6 pancreatic beta cells (RT-PCR); type: cell-based, mouse; conditions: 25 mM glucose, 72 hours
Description: as §1, §2, §3

SMILES	TXNIP mRNA levels [1]	TXNIP mRNA expression (C38 analogues screen) ([2]; 2.5 uM compound, 72 h)	TXNIP mRNA expression ([2]; 72 hours)	TXNIP mRNA expression [3]	RNA expression level of TXNIP in blood [4]	TNF-α mRNA expression [5]	concentration at which inhibition of TXNIP mRNA is still effective ([2]; 72 hours)
c1ccc(CCNc2ncnc3c2oc2ccccc23)cc1 [Compound C38]	decreased TXNIP mRNA levels	strongly inhibited TXNIP mRNA expression	inhibit TXNIP expression in a dose-dependent manner	inhibited	reduced	tended to increase TNF-α mRNA expression	
COc1cc(N2CC[C@@H](c3ccc4ccccc4c3)[C@H](O)C2)nc(N)n1 [Compound C30]	decreased TXNIP mRNA levels		inhibit TXNIP expression in a dose-dependent manner	inhibited	reduced	tended to increase TNF-α mRNA expression	0.15 µM
